Assay results reported in ChEMBL document CHEMBL1649537, “Imcroporin, a new cationic antimicrobial peptide from the venom of the scorpion Isometrus maculates” (2009).
Converted amounts (≈) assume the structure as drawn. The source made the active and inactive calls. The rule behind the calls is not given here.

Legend:
Staphylococcus = experiment: Antimicrobial activity against methicillin-resistant coagulase-negative Staphylococcus P1369 by microdilution method; type: functional
Bacillus thuringiensis = experiment: Antimicrobial activity against Bacillus thuringiensis AB93066 by microdilution method; type: functional
Staphylococcus aureus [1] = experiment: Antimicrobial activity against methicillin-resistant Staphylococcus aureus P1374 by microdilution method; type: functional
[2] = tested on: Staphylococcus epidermidis; experiment: Antimicrobial activity against penicillin-sensitive Staphylococcus epidermidis P1111 by microdilution method; type: functional
Staphylococcus aureus [3] = experiment: Antimicrobial activity against methicillin-resistant Staphylococcus aureus P1386 by microdilution method; type: functional
Bacillus subtilis = experiment: Antimicrobial activity against Bacillus subtilis AB91021 by microdilution method; type: functional
Micrococcus luteus = experiment: Antimicrobial activity against Micrococcus luteus AB93113 by microdilution method; type: functional
Staphylococcus aureus [4] = experiment: Antimicrobial activity against Staphylococcus aureus AB94004 by microdilution method; type: functional
Staphylococcus aureus [5] = experiment: Antimicrobial activity against methicillin-resistant Staphylococcus aureus P1386 at 500 ug/ml after 9 hrs by time-kill analysis; type: functional, organism-based
[6] = tested on: Staphylococcus epidermidis; experiment: Antimicrobial activity against penicillin-resistant Staphylococcus epidermidis P1389 by microdilution method; type: functional
Pseudomonas aeruginosa = experiment: Antimicrobial activity against Pseudomonas aeruginosa AB92037 by microdilution method; type: functional
Staphylococcus aureus [7] = experiment: Antimicrobial activity against methicillin-resistant Staphylococcus aureus P1386 at 200 ug/ml after 9 hrs by time-kill analysis; type: functional, organism-based
Escherichia coli = experiment: Antimicrobial activity against Escherichia coli AB94012 by microdilution method; type: functional

SMILES | MIC (Staphylococcus) [µg/mL] | MIC (Bacillus thuringiensis) [µg/mL] | MIC (Staphylococcus aureus [1]) [µg/mL] | MIC [2] [µg/mL] | MIC (Staphylococcus aureus [3]) [µg/mL] | MIC (Bacillus subtilis) [µg/mL] | MIC (Micrococcus luteus) [µg/mL] | MIC (Staphylococcus aureus [4]) [µg/mL] | Activity (Staphylococcus aureus [5]) | MIC [6] [µg/mL] | MIC (Pseudomonas aeruginosa) [µg/mL] | Activity (Staphylococcus aureus [7]) | MIC (Escherichia coli) [µg/mL]
CC1(C)S[C@@H]2[C@H](NC(=O)Cc3ccccc3)C(=O)N2[C@H]1C(=O)O [PENICILLIN G] | 2000 (≈ 5980 µM) | 12.5 (≈ 37.4 µM) | 1000 (≈ 2990 µM) | 4 (≈ 12 µM) | 1000 (≈ 2990 µM) | 50 (≈ 150 µM) | 25 (≈ 74.8 µM) | 6 (≈ 17.9 µM) | inactive | 1000 (≈ 2990 µM) | – | – | –
CN[C@H](CC(C)C)C(=O)N[C@H]1C(=O)N[C@@H](CC(N)=O)C(=O)N[C@H]2C(=O)N[C@H]3C(=O)N[C@H](C(=O)N[C@H](C(=O)O)c4cc(O)cc(O)c4-c4cc3ccc4O)[C@H](O)c3ccc(c(Cl)c3)Oc3cc2cc(c3O[C@@H]2O[C@H](CO)[C@@H](O)[C@H](O)[C@H]2O[C@H]2C[C@](C)(N)[C@H](O)[C@H](C)O2)Oc2ccc(cc2Cl)[C@H]1O [VANCOMYCIN] | 4 (≈ 2.76 µM) | 3 (≈ 2.07 µM) | – | – | – | 3 (≈ 2.07 µM) | 3 (≈ 2.07 µM) | – | – | – | – | – | –
CO/N=C(\C(=O)N[C@@H]1C(=O)N2C(C(=O)O)=C(COC(C)=O)CS[C@H]12)c1csc(N)n1 [CEFOTAXIME] | 100 (≈ 220 µM) | 12.5 (≈ 27.4 µM) | 400 (≈ 878 µM) | 8 (≈ 17.6 µM) | 400 (≈ 878 µM) | 50 (≈ 110 µM) | 3 (≈ 6.59 µM) | 3 (≈ 6.59 µM) | – | 12.5 (≈ 27.4 µM) | 12.5 (≈ 27.4 µM) | inactive | 3 (≈ 6.59 µM)
